# Earlier results in PMC7904743, “WIDOCK: a reactive docking protocol for virtual screening of covalent inhibitors” (Journal of Computer-Aided Molecular Design, 2021).
# Read-outs that look alike come from different tables or passages of the source.
# Legend:
# [1] = tested on: NUDT7; settings: protein labeling at 200 μM; experimental actives if % labeling higher than 50%; cited from earlier work
# [2] = tested on: OTUB2; settings: experimental actives if % labeling higher than 50%; cited from earlier work
# [3] = thiol reactivity, cited from earlier work
# [4] = natural log of average rate constant k
# [5] = natural logarithm of average rate constant
SMILES,NUDT7 % labeling [1],OTUB2 % labeling [2],"ln(avg k) [3, 4]","ln(avg k) [3, 5]"
"N#Cc1c(NC(=O)CCl)sc2c1CCCC2 [PCM-0102580, N#Cc1c(NC(=O)CCl)sc2c1CCCC2]",72%,10%,-16.105,-16.105
"O=C(CCl)Nc1ccc(N2CCOCC2)cc1 [PCM-0102582, O=C(CCl)Nc1ccc(N2CCOCC2)cc1]",0%,54%,-15.715,-15.715
"NC(=O)C1CCN(C(=O)CCl)CC1 [PCM-0102584, NC(=O)C1CCN(C(=O)CCl)CC1]",0%,0%,-15.701,-15.701
"O=C(CCl)Nc1cc2c(cc1Cl)OCCO2 [PCM-0102585, O=C(CCl)Nc1cc2c(cc1Cl)OCCO2]",12%,0%,-16.394,-16.394
"Cc1n[nH]c(C)c1NC(=O)CCl [PCM-0102588, Cc1n[nH]c(C)c1NC(=O)CCl]",0%,0%,-16.991,-16.991
"COC(=O)c1ccccc1N(C)C(=O)CCl [PCM-0102589, COC(=O)c1ccccc1N(C)C(=O)CCl]",15%,0%,-16.323,-16.323
"O=C(CCl)Nc1cc(C(=O)O)ccc1Cl [PCM-0102590, O=C(CCl)Nc1cc(C(=O)O)ccc1Cl]",0%,0%,-17.114,-17.114
"CN(Cc1ccccc1Br)C(=O)CCl [PCM-0102592, CN(Cc1ccccc1Br)C(=O)CCl]",14%,12%,-16.295,-16.295
"CCN(C(=O)CCl)C1CC1 [PCM-0102594, CCN(C(=O)CCl)C1CC1]",0%,0%,-17.070,-17.070
"O=C(CCl)NCC1CCOC1 (centres unmarked) [PCM-0102596, O=C(CCl)NCC1CCOC1]",0%,13%,-16.248,-16.248
"CC(NC(=O)CCl)C(=O)N1CCCCC1 (centres unmarked) [PCM-0102598, CC(NC(=O)CCl)C(=O)N1CCCCC1]",0%,0%,-16.794,-16.794
"O=C(CCl)Nc1ccc(N2CCCCC2)cc1 [PCM-0102612, O=C(CCl)Nc1ccc(N2CCCCC2)cc1]",0%,37%,-16.206,-16.206
"O=C(CCl)NC(=O)Nc1ccc2c(c1)OCCO2 [PCM-0102614, O=C(CCl)NC(=O)Nc1ccc2c(c1)OCCO2]",23%,27%,-16.380,-16.380
"O=C(CCl)N1CCOC(c2ccc(F)cc2)C1 (centres unmarked) [PCM-0102615, O=C(CCl)N1CCOC(c2ccc(F)cc2)C1]",0%,0%,-15.513,-15.513
"CC1CCCC(C)N1C(=O)CCl (centres unmarked) [PCM-0102616, CC1CCCC(C)N1C(=O)CCl]",0%,0%,-15.945,-15.945
"CCc1cccc(C)c1NC(=O)CCl [PCM-0102618, CCc1cccc(C)c1NC(=O)CCl]",11%,0%,-17.017,-17.017
"O=C(CCl)NC1CCN(C(=O)c2ccco2)CC1 [PCM-0102619, O=C(CCl)NC1CCN(C(=O)c2ccco2)CC1]",0%,10%,-16.352,-16.352
"CC(C)(C)c1ccc(NC(=O)CCl)cc1 [PCM-0102622, CC(C)(C)c1ccc(NC(=O)CCl)cc1]",0%,32%,-15.995,-15.995

SMILES,NUDT7 % labeling [1],OTUB2 % labeling [2],"ln(avg k) [3, 4]","ln(avg k) [3, 5]"
"Cc1ccc(NC(=O)NC(=O)CCl)cc1 [PCM-0102623, Cc1ccc(NC(=O)NC(=O)CCl)cc1]",11%,0%,-16.273,-16.273
"Cc1ccc(C(=O)O)cc1NC(=O)CCl [PCM-0102624, Cc1ccc(C(=O)O)cc1NC(=O)CCl]",0%,0%,-17.065,-17.065
"O=C(CCl)N1CCCc2cc(S(=O)(=O)N3CCCC3)ccc21 [PCM-0102625, O=C(CCl)N1CCCc2cc(S(=O)(=O)N3CCCC3)ccc21]",0%,0%,-15.992,-15.992
"CC(C)C(C)(C#N)NC(=O)CCl (centres unmarked) [PCM-0102626, CC(C)C(C)(C#N)NC(=O)CCl]",0%,0%,-15.951,-15.951
"Cc1ccc(S(=O)(=O)N2CCN(C(=O)CCl)CC2)c(C)c1 [PCM-0102628, Cc1ccc(S(=O)(=O)N2CCN(C(=O)CCl)CC2)c(C)c1]",0%,0%,-15.546,-15.546
"Cc1nc(CN2CCN(C(=O)CCl)CC2)cs1 [PCM-0102630, Cc1nc(CN2CCN(C(=O)CCl)CC2)cs1]",0%,0%,-15.690,-15.690
"CN(Cc1cccs1)C(=O)CCl [PCM-0102636, CN(Cc1cccs1)C(=O)CCl]",17%,0%,-15.483,-15.483
"Cc1cc(N2CCN(C(=O)CCl)CC2)nc(C(C)C)n1 [PCM-0102638, Cc1cc(N2CCN(C(=O)CCl)CC2)nc(C(C)C)n1]",0%,0%,-16.816,-16.816
"COc1ccc(NC(=O)CCl)cc1Cl [PCM-0102652, COc1ccc(NC(=O)CCl)cc1Cl]",12%,24%,-15.680,-15.680
"O=C(CCl)Nc1cccnc1 [PCM-0102653, O=C(CCl)Nc1cccnc1]",0%,0%,-16.863,-16.863
"CCNC(=O)NC(=O)CCl [PCM-0102654, CCNC(=O)NC(=O)CCl]",0%,0%,-16.588,-16.588
"O=C(CCl)N1CCC(C(=O)N2CCCC2)CC1 [PCM-0102655, O=C(CCl)N1CCC(C(=O)N2CCCC2)CC1]",0%,0%,-15.795,-15.795
"CCOC(=O)C1CCN(C(=O)CCl)CC1 [PCM-0102656, CCOC(=O)C1CCN(C(=O)CCl)CC1]",0%,0%,-15.523,-15.523
"O=C(CCl)Nc1ccccc1 [PCM-0102658, O=C(CCl)Nc1ccccc1]",0%,0%,-16.281,-16.281
"O=C(CCl)N1N=C(c2ccco2)CC1c1ccsc1 (centres unmarked) [PCM-0102659, O=C(CCl)N1N=C(c2ccco2)CC1c1ccsc1]",39%,0%,-14.828,-14.828
"Cc1ccc(CNC(=O)CCl)cc1 [PCM-0102660, Cc1ccc(CNC(=O)CCl)cc1]",0%,63%,-16.571,-16.571
"O=C(CCl)Nc1ccc2c(c1)CCC2 [PCM-0102662, O=C(CCl)Nc1ccc2c(c1)CCC2]",12%,14%,-16.202,-16.202
